“And” between values parts separate entries of the source, which are not always exact repeats. Equal values may be shown once.
What was measured:
SfurOBP1 = SfurOBP1 (Sogatella furcifera, UniProt V5T8N5); assay: biochemical; assay type: binding; settings: for Fluorescence competitive binding assay, fluorescence intensity: OBP1, three replicate columns
In short: (§1)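 Fluorescence competitive binding used 2.0 µM SfurOBP and 2.0 µM 1-NPN reporter in 50 mM Tris-HCl, pH 7.4, with odorants at 2-20 µM. Fluorescence was read 2 min after adding the odorant (excitation 337 nm, emission 390-490 nm), in triplicate. Ki was calculated from IC50 as IC50/(1 + [1-NPN]/K1-NPN).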

SfurOBP11 = SfurOBP11 (Sogatella furcifera, UniProt V5T6E3); assay: biochemical; assay type: binding
Sequence of SfurOBP11 (V5T6E3 entry or part of it): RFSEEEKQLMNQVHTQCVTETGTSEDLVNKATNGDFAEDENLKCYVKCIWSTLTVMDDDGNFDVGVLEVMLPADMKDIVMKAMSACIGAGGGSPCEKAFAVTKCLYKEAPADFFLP
In short: as §1

SfurOBP2 = SfurOBP2 (Sogatella furcifera, UniProt V5T759); assay: biochemical; assay type: binding
Sequence of SfurOBP2 (V5T759 entry or part of it): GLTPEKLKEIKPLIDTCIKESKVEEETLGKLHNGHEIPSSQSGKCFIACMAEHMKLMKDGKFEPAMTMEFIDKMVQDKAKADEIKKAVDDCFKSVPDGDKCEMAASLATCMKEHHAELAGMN
In short: as §1

SfurOBP3 = SfurOBP3 (Sogatella furcifera, UniProt V5T818); assay: biochemical; assay type: binding; settings: for Fluorescence competitive binding assay, fluorescence intensity: OBP3, three replicate columns;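 on Fluorescence competitive binding assay, fluorescence intensity: competitor odorant at 2 to 20 µM with protein and 1-NPN both 2.0 µM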
Sequence of SfurOBP3 (V5T818 entry or part of it): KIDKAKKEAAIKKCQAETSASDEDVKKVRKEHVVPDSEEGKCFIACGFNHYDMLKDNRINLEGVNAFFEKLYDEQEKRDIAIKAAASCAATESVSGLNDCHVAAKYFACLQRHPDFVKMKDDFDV
In short: as §1

S. furcifera adults = assay: Y-tube olfactometer behavioral trials; assay type: in vivo, Sogatella furcifera; settings: odorant 50 µL/L vs hexane; adults
Method: To test the effect of the rice odorants on the behavior of S. furcifera adults, a glass Y-tube olfactometer (inner diameter 2.0 cm, stem 13 cm, arms 10 cm, angle of arms 60°) according to the previously described ([Wang et al., 2014b]) was employed. An airtight cubic box (70 by 45 by 30 cm) was used to position Y-tube, and the Y-tube was lighted by a 30-W filament lamp 25 cm above it. Air that filtered through activated charcoal and humidified with doubly distilled water was pumped in both arms at a flow rate of 300 mL/min. Two filter paper strips (10 by 1 cm) containing 100 µL odorant source (50 µL/L) and 100 µL control hexane were placed in two holding chambers in the front of the olfactometer, respectively. A S. furcifera adult (2 days after emergence, starved for 0.5 h) was randomly chosen and placed in the stem of the Y-tube. Each insect was given 10 min to choose between the two arms of the Y-tube, the choice was noted if the planthopper reached one-half of the arms’ lengths and stayed in the arm for more than 1 min. Besides, S. furcifera was considered as having no orientation preference. Forty-five individuals were used for each compound, each insect used only once. And the dual-choice experiment was done in an environmentally controlled room (25 ± 1 °C and 50% RH). A Chi-squared test was used to analyze the behavioral assay data by using SPSS19.0 (SPSS Inc., Chicago, IL, USA) software.
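Wherever Fluorescence competitive binding assay, fluorescence intensity is given: competitor odorant at 2 to 20 µM with protein and 1-NPN both 2.0 µM.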

Sequence of SfurOBP1 (V5T8N5 entry or part of it): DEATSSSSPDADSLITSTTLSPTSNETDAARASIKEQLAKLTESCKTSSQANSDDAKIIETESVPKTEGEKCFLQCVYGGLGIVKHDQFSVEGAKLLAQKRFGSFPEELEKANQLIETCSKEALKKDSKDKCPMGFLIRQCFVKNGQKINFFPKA

## CC/C=C\CCO [(Z)-3-hexenol]
SfurOBP1
  IC50: > 20 µM
SfurOBP1; ligand concentration 2 (μM)
  Fluorescence competitive binding assay, fluorescence intensity: 6275 and 5762 and 6097
SfurOBP1; ligand concentration 4 (μM)
  Fluorescence competitive binding assay, fluorescence intensity: 7853 and 8652 and 8403
SfurOBP1; ligand concentration 6 (μM)
  Fluorescence competitive binding assay, fluorescence intensity: 6992 and 6382 and 6355
SfurOBP1; ligand concentration 8 (μM)
  Fluorescence competitive binding assay, fluorescence intensity: 6419 and 7196 and 6808
SfurOBP1; ligand concentration 10 (μM)
  Fluorescence competitive binding assay, fluorescence intensity: 6561 and 6490 and 6439
SfurOBP1; ligand concentration 12 (μM)
  Fluorescence competitive binding assay, fluorescence intensity: 6242 and 6220 and 5811
SfurOBP1; ligand concentration 14 (μM)
  Fluorescence competitive binding assay, fluorescence intensity: 5437 and 6035 and 6831
SfurOBP1; ligand concentration 16 (μM)
  Fluorescence competitive binding assay, fluorescence intensity: 6974 and 6042 and 5510
SfurOBP1; ligand concentration 18 (μM)
  Fluorescence competitive binding assay, fluorescence intensity: 6021 and 6159 and 6506
SfurOBP1; ligand concentration 20 (μM)
  Fluorescence competitive binding assay, fluorescence intensity: 6648 and 5435 and 5963
SfurOBP11
  IC50: 19.7 µM
SfurOBP11; ligand concentration 2, replicate 1
  Fluorescence intensity, fluorescence competitive binding assay, OBP11: 23102
SfurOBP11; ligand concentration 2, replicate 2
  Fluorescence intensity, fluorescence competitive binding assay, OBP11: 23122
SfurOBP11; ligand concentration 2, replicate 3
  Fluorescence intensity, fluorescence competitive binding assay, OBP11: 23081
SfurOBP11; ligand concentration 4, replicate 1
  Fluorescence intensity, fluorescence competitive binding assay, OBP11: 21959
SfurOBP11; ligand concentration 4, replicate 2
  Fluorescence intensity, fluorescence competitive binding assay, OBP11: 22135
SfurOBP11; ligand concentration 4, replicate 3
  Fluorescence intensity, fluorescence competitive binding assay, OBP11: 21783
SfurOBP11; ligand concentration 6, replicate 1
  Fluorescence intensity, fluorescence competitive binding assay, OBP11: 21447
SfurOBP11; ligand concentration 6, replicate 2
  Fluorescence intensity, fluorescence competitive binding assay, OBP11: 20794
SfurOBP11; ligand concentration 6, replicate 3
  Fluorescence intensity, fluorescence competitive binding assay, OBP11: 21118
SfurOBP11; ligand concentration 8, replicate 1
  Fluorescence intensity, fluorescence competitive binding assay, OBP11: 18781
SfurOBP11; ligand concentration 8, replicate 2
  Fluorescence intensity, fluorescence competitive binding assay, OBP11: 21016
SfurOBP11; ligand concentration 8, replicate 3
  Fluorescence intensity, fluorescence competitive binding assay, OBP11: 21554
SfurOBP11; ligand concentration 10, replicate 1
  Fluorescence intensity, fluorescence competitive binding assay, OBP11: 18621
SfurOBP11; ligand concentration 10, replicate 2
  Fluorescence intensity, fluorescence competitive binding assay, OBP11: 21154
SfurOBP11; ligand concentration 10, replicate 3
  Fluorescence intensity, fluorescence competitive binding assay, OBP11: 19973
SfurOBP11; ligand concentration 12, replicate 1
  Fluorescence intensity, fluorescence competitive binding assay, OBP11: 17455
SfurOBP11; ligand concentration 12, replicate 2
  Fluorescence intensity, fluorescence competitive binding assay, OBP11: 20348
SfurOBP11; ligand concentration 12, replicate 3
  Fluorescence intensity, fluorescence competitive binding assay, OBP11: 19925
SfurOBP11; ligand concentration 14, replicate 1
  Fluorescence intensity, fluorescence competitive binding assay, OBP11: 17235
SfurOBP11; ligand concentration 14, replicate 2
  Fluorescence intensity, fluorescence competitive binding assay, OBP11: 18458
SfurOBP11; ligand concentration 14, replicate 3
  Fluorescence intensity, fluorescence competitive binding assay, OBP11: 18680
SfurOBP11; ligand concentration 16, replicate 1
  Fluorescence intensity, fluorescence competitive binding assay, OBP11: 16257
SfurOBP11; ligand concentration 16, replicate 2
  Fluorescence intensity, fluorescence competitive binding assay, OBP11: 15961
SfurOBP11; ligand concentration 16, replicate 3
  Fluorescence intensity, fluorescence competitive binding assay, OBP11: 16778
SfurOBP11; ligand concentration 18, replicate 1
  Fluorescence intensity, fluorescence competitive binding assay, OBP11: 15893
SfurOBP11; ligand concentration 18, replicate 2
  Fluorescence intensity, fluorescence competitive binding assay, OBP11: 16090
SfurOBP11; ligand concentration 18, replicate 3
  Fluorescence intensity, fluorescence competitive binding assay, OBP11: 15799
SfurOBP11; ligand concentration 20, replicate 1
  Fluorescence intensity, fluorescence competitive binding assay, OBP11: 15616
SfurOBP11; ligand concentration 20, replicate 2
  Fluorescence intensity, fluorescence competitive binding assay, OBP11: 15707
SfurOBP11; ligand concentration 20, replicate 3
  Fluorescence intensity, fluorescence competitive binding assay, OBP11: 14975
SfurOBP2
  IC50: > 20 µM
SfurOBP2; ligand concentration 2 (unit not given), replicate column 1 of 3
  Fluorescence competitive binding assay, OBP2 (raw fluorescence reading): 19770
SfurOBP2; ligand concentration 2 (unit not given), replicate column 2 of 3
  Fluorescence competitive binding assay, OBP2 (raw fluorescence reading): 19248
SfurOBP2; ligand concentration 2 (unit not given), replicate column 3 of 3
  Fluorescence competitive binding assay, OBP2 (raw fluorescence reading): 18506
SfurOBP2; ligand concentration 4 (unit not given), replicate column 1 of 3
  Fluorescence competitive binding assay, OBP2 (raw fluorescence reading): 19551
SfurOBP2; ligand concentration 4 (unit not given), replicate column 2 of 3
  Fluorescence competitive binding assay, OBP2 (raw fluorescence reading): 19781
SfurOBP2; ligand concentration 4 (unit not given), replicate column 3 of 3
  Fluorescence competitive binding assay, OBP2 (raw fluorescence reading): 18404
SfurOBP2; ligand concentration 6 (unit not given), replicate column 1 of 3
  Fluorescence competitive binding assay, OBP2 (raw fluorescence reading): 19561
SfurOBP2; ligand concentration 6 (unit not given), replicate column 2 of 3
  Fluorescence competitive binding assay, OBP2 (raw fluorescence reading): 18769
SfurOBP2; ligand concentration 6 (unit not given), replicate column 3 of 3
  Fluorescence competitive binding assay, OBP2 (raw fluorescence reading): 17857
SfurOBP2; ligand concentration 8 (unit not given), replicate column 1 of 3
  Fluorescence competitive binding assay, OBP2 (raw fluorescence reading): 18896
SfurOBP2; ligand concentration 8 (unit not given), replicate column 2 of 3
  Fluorescence competitive binding assay, OBP2 (raw fluorescence reading): 18816
SfurOBP2; ligand concentration 8 (unit not given), replicate column 3 of 3
  Fluorescence competitive binding assay, OBP2 (raw fluorescence reading): 16878
SfurOBP2; ligand concentration 10 (unit not given), replicate column 1 of 3
  Fluorescence competitive binding assay, OBP2 (raw fluorescence reading): 17416
SfurOBP2; ligand concentration 10 (unit not given), replicate column 2 of 3
  Fluorescence competitive binding assay, OBP2 (raw fluorescence reading): 17439
SfurOBP2; ligand concentration 10 (unit not given), replicate column 3 of 3
  Fluorescence competitive binding assay, OBP2 (raw fluorescence reading): 16747
SfurOBP2; ligand concentration 12 (unit not given), replicate column 1 of 3
  Fluorescence competitive binding assay, OBP2 (raw fluorescence reading): 16106
SfurOBP2; ligand concentration 12 (unit not given), replicate column 2 of 3
  Fluorescence competitive binding assay, OBP2 (raw fluorescence reading): 16534
SfurOBP2; ligand concentration 12 (unit not given), replicate column 3 of 3
  Fluorescence competitive binding assay, OBP2 (raw fluorescence reading): 16305
SfurOBP2; ligand concentration 14 (unit not given), replicate column 1 of 3
  Fluorescence competitive binding assay, OBP2 (raw fluorescence reading): 14820
SfurOBP2; ligand concentration 14 (unit not given), replicate column 2 of 3
  Fluorescence competitive binding assay, OBP2 (raw fluorescence reading): 14819
SfurOBP2; ligand concentration 14 (unit not given), replicate column 3 of 3
  Fluorescence competitive binding assay, OBP2 (raw fluorescence reading): 14820
SfurOBP2; ligand concentration 16 (unit not given), replicate column 1 of 3
  Fluorescence competitive binding assay, OBP2 (raw fluorescence reading): 13168
SfurOBP2; ligand concentration 16 (unit not given), replicate column 2 of 3
  Fluorescence competitive binding assay, OBP2 (raw fluorescence reading): 12294
SfurOBP2; ligand concentration 16 (unit not given), replicate column 3 of 3
  Fluorescence competitive binding assay, OBP2 (raw fluorescence reading): 13106
SfurOBP2; ligand concentration 18 (unit not given), replicate column 1 of 3
  Fluorescence competitive binding assay, OBP2 (raw fluorescence reading): 12788
SfurOBP2; ligand concentration 18 (unit not given), replicate column 2 of 3
  Fluorescence competitive binding assay, OBP2 (raw fluorescence reading): 12466
SfurOBP2; ligand concentration 18 (unit not given), replicate column 3 of 3
  Fluorescence competitive binding assay, OBP2 (raw fluorescence reading): 12554
SfurOBP2; ligand concentration 20 (unit not given), replicate column 1 of 3
  Fluorescence competitive binding assay, OBP2 (raw fluorescence reading): 12993
SfurOBP2; ligand concentration 20 (unit not given), replicate column 2 of 3
  Fluorescence competitive binding assay, OBP2 (raw fluorescence reading): 12815
SfurOBP2; ligand concentration 20 (unit not given), replicate column 3 of 3
  Fluorescence competitive binding assay, OBP2 (raw fluorescence reading): 12410
SfurOBP3
  IC50: > 20 µM
SfurOBP3; ligand concentration 2
  Fluorescence competitive binding assay, fluorescence intensity: 48626 and 49734 and 49512
SfurOBP3; ligand concentration 4
  Fluorescence competitive binding assay, fluorescence intensity: 45649 and 45958 and 42870
SfurOBP3; ligand concentration 6
  Fluorescence competitive binding assay, fluorescence intensity: 41915 and 48260 and 45013
SfurOBP3; ligand concentration 8
  Fluorescence competitive binding assay, fluorescence intensity: 45442 and 45656 and 45548
SfurOBP3; ligand concentration 10
  Fluorescence competitive binding assay, fluorescence intensity: 40904 and 43831 and 42892
SfurOBP3; ligand concentration 12
  Fluorescence competitive binding assay, fluorescence intensity: 41218 and 40601 and 40113
SfurOBP3; ligand concentration 14
  Fluorescence competitive binding assay, fluorescence intensity: 34957 and 35609 and 37985
SfurOBP3; ligand concentration 16
  Fluorescence competitive binding assay, fluorescence intensity: 33728 and 34170 and 34618
SfurOBP3; ligand concentration 18
  Fluorescence competitive binding assay, fluorescence intensity: 37828 and 32491 and 33581
SfurOBP3; ligand concentration 20
  Fluorescence competitive binding assay, fluorescence intensity: 33910 and 32414 and 29949
S. furcifera adults
  number of insects choosing hexane arm: 13
  number of insects choosing volatilies arm: 13
  number of insects failed (no choice): 14
